Structures can show the parent of a compound that is named as a salt.
Columns and labels:
[1] = tested on: extracellular ApoE protein; test: ApoE ELISA of conditioned media; assay type: cell-based, human; conditions: MeWo cells, 1 μM, 72 hours
Description: Extracellular ApoE levels in serum-free conditioned media from melanoma cells treated with DMSO, GW3965, or T0901317 (1 μM each) were quantified using the ApoE ELISA kit (Innovative Research) at 72 hours following treatment.

[2] = tested on: ApoE promoter fused to ME.1 or ME.2 in MeWo cells; test: ApoE promoter activity (luciferase) assay; assay type: cell-based, human; conditions: 1 μM, 24 hours
Excerpt: The ApoE promoter, consisting of a sequence spanning 980 base pairs upstream and 93 base pairs downstream of the ApoE gene, was cloned into a pGL3-Basic vector (E1751, Promega Corporation, Madison, Wis.) upstream of the firefly luciferase gene using NheI and SacI restriction enzymes. Then, multi-enhancer elements 1 (ME.1) and 2 (ME.2) were cloned directly upstream of the ApoE promoter using MluI and […] restriction enzymes. To assess ApoE promoter- and ME.1/ME.2-driven transcriptional activation by LXR agonists, 5×10^4 MeWo cells were seeded into a 24-well plate. The following day, 100 ng of pGL3-ME.1/ME.2-ApoE promoter construct and 2 ng of pRL-CMV renilla luciferase construct (E2261, Promega) were co-transfected into cells in the presence of DMSO, GW3965, or T0901317 at 1 μM, each condition in quadruplicate. To assess transcriptional activation by LXRα or LXRβ, 5×10^4 MeWo cells expressing a control shRNA or shRNA targeting LXRα or LXRβ were seeded into a 24-well plate. […] After 24 hours, cells were lysed, and cell lysate was analyzed for firefly and renilla luciferase activity using the Dual Luciferase Assay System (E1960, Promega) and a Bio-Tek Synergy NEO Microplate Reader. Firefly luciferase signal was normalized to renilla luciferase signal and all data are expressed relative to the luciferase activity ratio measured in the DMSO-treated control cells.

[3] = tested on: MeWo-LM2 cells, MeWo brain metastatic derivative cells; test: Systemic and brain metastasis after intracardiac injection into athymic nude mice; assay type: in vivo, human; conditions: diet 100 mg/kg
Description: After 8 hours, the transfection media was replaced with fresh media. After 48 hours, 1×10^5 cells were injected intravenously into NOD-SCID mice to assess lung metastatic colonization or through intracardiac injection into athymic nude mice to assess systemic metastasis. For cell invasion and endothelial recruitment in vitro assays, the cells were used 96 hours post-transfection.
Melanoma cells used for in vivo metastasis assays were transduced with a stably expressed retroviral construct encoding a luciferase reporter gene (Ponomarev et al., 2004), allowing us to monitor the in vivo progression of melanoma cells by bioluminescence imaging. The following numbers of melanoma cells, resuspended in 100 μL, of PBS, were injected intravenously via the tail-vein: 4×10^4 MeWo cells, 2.5×10^5 HT-144 cells, 2×10^5 SK-Mel-334.2 cells, 5×10^4B16F10 cells, and 1×10^5 YUMM cells. The MeWo, HT-144, and SK-Mel-334.2 cells were injected into 6-8 week-old sex-matched NOD scid mice, while the B16F10 and YUMM cells were injected into 6-8 week-old sex-matched C57BL/6 mice. […] To assess the effect of GW3965 treatment on brain metastasis, 1×10^5 MeWo brain-metastatic derivatives were injected intracardially into athymic nude mice. Immediately following injection, mice were randomly assigned to a control diet or GW3965-supplemented diet (100 mg/kg). […]

[4] = tested on: Tyr::CreER; B-RafV600E/+; Ptenlox/+ and Ptenlox/lox mice; test: Genetically-initiated model of melanoma progression; assay type: in vivo, mouse
Description: The Tyr::CreER; B-Raf^V600E/+, Pten^lox/+/Tyr::CreER; B-Raf^V600E/+, Pten^lox/lox conditional model of melanoma progression was previously established and characterized by Dankort et al. (2009). Briefly, melanoma in these mice was induced at 6 weeks of age by intraperitoneally injecting 4-HT (H6278, 70% isomer, Sigma-Aldrich, St Louis, Mo.) at 25 mg/kg administered in peanut oil on three consecutive days. The 4-HT stock solution was prepared by dissolving it in 100% EtOH at 50 mg/mL by heating at 45° C. for 5 min and mixing. Once dissolved, the stock 4-HT solution was then diluted by 10-fold in peanut oil, yielding a 5 mg/mL 4-HT working solution that was then injected into mice. After the first 4-HT injection, mice were blindedly assigned to receive either a control diet or a diet supplemented with GW3965 (100 mg/kg). Mice were examined three times a week for the presence and progression of melanoma lesions. At day 35, dorsal skin samples were harvested from control-treated and GW3965-treated mice, fixed in 4% PFA and photographed at 10×. The percentage of pigmented melanoma lesion area out of the total skin area was quantified using ImageJ. For survival analyses, mice were monitored daily for melanoma progression and euthanized according to a standard body condition score, taking into account initial signs of moribund state and discomfort associated with the progression of melanoma burden. Post-mortem, the lungs, brains, and salivary glands were harvested and examined for the presence of macroscopic melanoma lesions.

[5] = tested on: LXR signaling in the brain; conditions: cited from earlier work
HUVEC = test: Endothelial migration and chemotaxis assay (cancer cell-free); assay type: cell-based, human; conditions: LRP8 receptor-dependent
Description: Serum-starved HUVEC's were pulsed with Cell Tracker Red CMTPX dye for 45 minutes and seeded into HTS Fluoroblock trans-well inserts at a concentration of 1×10^5 HUVEC's in 0.5 mL starvation media per each insert. The assay was allowed to proceed for 16-18 hours at 37° C., and the inserts were processed and analyzed as described above (See Matrigel Invasion Assay).
HUVEC's were serum-starved in 0.2% FBS EGM-2 media for 16 hours and labeled with Cell Tracker Red CMTPX dye for 45 minutes. Meanwhile, the indicated amounts (1-5 μg) of recombinant human ApoE3 or BSA were mixed with 250 μL of matrigel (356231, BD Biosciences) and allowed to solidify at the bottom of a 24-well plate for 30 min. 250 μL of HUVEC EGM-2 media containing 0.2% FBS was then added to each matrigel-coated well, and […] HTS Fluoroblock inserts were fitted into each well. 1×10^5 HUVEC's, resuspended in 0.5 mL of starvation media, were seeded into each insert and allowed to migrate along the matrigel gradient for 16-18 hours at 37° C. Upon completion of the assay, the inserts were mounted on slides and analyzed as described above (See Matrigel Invasion Assay).

| Molecule | levels of secreted ApoE protein [1] | activity of luciferase reporter with ApoE promoter fused to ME.1 or ME.2 [2] | systemic dissemination and brain colonization [3] | overall survival times ([4]; Ptenlox/+ and Ptenlox/lox mice, diet 100 mg/kg) | number of lymphatic metastases detected post-mortem ([4]; Ptenlox/lox mice, salivary gland lymph nodes, 100 mg/kg) | tumor progression ([4]; diet 100 mg/kg after melanoma initiation) | blood brain barrier crossing ([5]; in vivo) | amyloid plaque pathology and memory deficits in pre-clinical models of Alzheimer's disease ([5]; oral delivery) | endothelial migration in trans-well and gradient-based chemotactic assay (HUVEC) |
| --- | --- | --- | --- | --- | --- | --- | --- | --- | --- |
| O=S(=O)(c1ccccc1)N(CC(F)(F)F)c1ccc(C(O)(C(F)(F)F)C(F)(F)F)cc1 [T0901317 1] | elevated levels | enhance |  |  |  |  |  |  |  |
| O=C(O)Cc1cccc(OCCCN(Cc2cccc(C(F)(F)F)c2Cl)CC(c2ccccc2)c2ccccc2)c1 [GW3965 2, 3-[3-[N-(2-Chloro-3-trifluoromethylbenzyl)-(2,2-diphenylethyl)amino]propyloxy]phenylacetic acid hydrochloride] | elevated levels | enhance | inhibited | significantly extended | decrease | attenuated | can efficiently cross the blood brain barrier | improve amyloid plaque pathology and memory deficits |  |
| recombinant human ApoE3: recombinant human ApoE3 (4696, BioVision) |  |  |  |  |  |  |  |  | sufficient to inhibit |

— patent publication US9399028B2, “Treatment of drug resistant cancer” (ROCKEFELLER UNIVERSITY (THE), priority 2012, dated 2016)
